# In US20130267513A1, “PYRAZOLOPYRIDINES AS INHIBITORS OF THE KINASE LRRK2” (priority 2010, published 2013):
# Molecular target: T1, LRRK2 (Homo sapiens, UniProt Q5S007)
# Assay: LRRK2 KI determination
# Assay type: biochemical
# Conditions: not given
# Target sequence in this assay (Q5S007 970-2527): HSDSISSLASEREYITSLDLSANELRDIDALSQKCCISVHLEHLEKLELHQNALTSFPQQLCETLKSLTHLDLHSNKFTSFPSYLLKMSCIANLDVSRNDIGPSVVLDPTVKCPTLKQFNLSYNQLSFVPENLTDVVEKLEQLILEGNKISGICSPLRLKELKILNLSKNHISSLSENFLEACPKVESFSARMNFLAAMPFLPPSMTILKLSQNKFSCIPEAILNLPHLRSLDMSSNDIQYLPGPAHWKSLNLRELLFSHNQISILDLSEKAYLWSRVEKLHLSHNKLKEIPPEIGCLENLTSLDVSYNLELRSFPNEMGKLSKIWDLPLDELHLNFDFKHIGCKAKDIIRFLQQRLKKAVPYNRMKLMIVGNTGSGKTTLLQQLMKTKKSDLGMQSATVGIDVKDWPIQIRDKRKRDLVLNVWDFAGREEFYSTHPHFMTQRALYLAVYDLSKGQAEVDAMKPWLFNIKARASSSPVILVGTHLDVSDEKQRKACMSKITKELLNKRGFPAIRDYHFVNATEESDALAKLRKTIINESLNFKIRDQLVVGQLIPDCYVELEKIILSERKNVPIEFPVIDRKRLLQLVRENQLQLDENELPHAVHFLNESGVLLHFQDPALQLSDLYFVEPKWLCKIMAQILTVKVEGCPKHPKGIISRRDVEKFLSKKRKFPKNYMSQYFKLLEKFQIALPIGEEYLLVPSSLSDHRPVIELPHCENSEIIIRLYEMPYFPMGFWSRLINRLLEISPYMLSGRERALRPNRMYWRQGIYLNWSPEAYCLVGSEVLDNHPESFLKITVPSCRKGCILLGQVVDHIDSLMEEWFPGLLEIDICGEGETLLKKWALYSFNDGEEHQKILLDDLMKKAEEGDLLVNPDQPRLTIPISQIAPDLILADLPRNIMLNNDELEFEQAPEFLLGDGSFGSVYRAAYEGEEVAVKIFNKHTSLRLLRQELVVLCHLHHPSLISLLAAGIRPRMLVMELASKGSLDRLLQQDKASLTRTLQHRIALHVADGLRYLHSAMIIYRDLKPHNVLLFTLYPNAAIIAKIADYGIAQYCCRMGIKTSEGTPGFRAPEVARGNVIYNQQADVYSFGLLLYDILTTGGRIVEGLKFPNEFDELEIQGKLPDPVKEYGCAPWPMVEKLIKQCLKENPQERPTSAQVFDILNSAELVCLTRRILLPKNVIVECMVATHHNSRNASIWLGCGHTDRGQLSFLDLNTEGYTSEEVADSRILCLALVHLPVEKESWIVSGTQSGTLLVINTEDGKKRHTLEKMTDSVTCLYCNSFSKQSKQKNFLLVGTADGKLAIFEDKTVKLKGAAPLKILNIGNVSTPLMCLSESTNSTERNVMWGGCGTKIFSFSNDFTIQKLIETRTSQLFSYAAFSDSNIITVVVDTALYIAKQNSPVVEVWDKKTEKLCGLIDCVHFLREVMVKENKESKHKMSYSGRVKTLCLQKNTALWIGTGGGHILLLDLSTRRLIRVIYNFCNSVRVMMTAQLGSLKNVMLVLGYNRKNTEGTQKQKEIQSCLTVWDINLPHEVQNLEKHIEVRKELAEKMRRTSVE
row,SMILES,Ki [µM]
1,"CC(C)Cn1cc(-c2n[nH]c3cc(C#N)nc(OC4CCOCC4)c23)cn1 [Example 11, 3-(1-isobutyl-1H-pyrazol-4-yl)-4-(tetrahydro-2H-pyran-4-yloxy)-1H-pyrazolo[4,3-c]pyridine-6-carbonitrile]",< 0.1
2,"Clc1cc2[nH]nc(-c3ccnc(N4CCOCC4)c3)c2c(OC2CCOCC2)n1 [Example 12, 4-(4-(6-chloro-4-(tetrahydro-2H-pyran-4-yloxy)-1H-pyrazolo[4,3-c]pyridin-3-yl)pyridin-2-yl)morpholine]",< 0.1
3,N#Cc1cc2[nH]nc(-c3ccnc(N4CCOCC4)c3)c2c(OC2CCOCC2)n1 [Example 13],0.1 to 1
4,"CC(C)n1cc(-c2n[nH]c3cc(C(F)(F)F)nc(OC4CCOCC4)c23)cn1 [Example 15, 3-(1-isopropyl-1H-pyrazol-4-yl)-4-(tetrahydro-2H-pyran-4-yloxy)-6-(trifluoromethyl)-1H-pyrazolo[4,3-c]pyridine]",< 0.1
5,"Cc1cc2[nH]nc(-c3cc(C(=O)N(C)C)ccn3)c2c(NC2CCOCC2)n1 [Example 16, N,N-dimethyl-2-(6-methyl-4-(tetrahydro-2H-pyran-4-ylamino)-1H-pyrazolo[4,3-c]pyridin-3-yl)isonicotinamide]",0.1 to 1
6,"COc1nc(C)cc2[nH]nc(-c3ccnc(N4CCOCC4)c3)c12 [Example 20, 4-(4-(4-methoxy-6-methyl-1H-pyrazolo[4,3-c]pyridin-3-yl)pyridin-2-yl)morpholine]",0.1 to 1
7,"CNC(=O)c1cccc(-c2[nH]nc3cc(C)nc(OC)c23)c1 [Example 21, 3-(4-Methoxy-6-methyl-1H-pyrazolo[4,3-c]pyridin-3-yl)-N-methylbenzamide]",0.1 to 1
8,"Cc1cc2[nH]nc(-c3ccnc(N4CCOCC4)c3)c2c(OC2CCOCC2)n1 [Example 22, 4-(4-(6-Methyl-4-(tetrahydro-2H-pyran-4-yloxy)-1H-pyrazolo[4,3-c]pyridin-3-yl)pyridin-2-yl)morpholine]",< 0.1
9,"CNC(=O)c1cccc(-c2[nH]nc3cc(C)nc(OC4CCOCC4)c23)c1 [Example 23, N-Methyl-3-(6-Methyl-4-(tetrahydro-2H-pyran-4-yloxy)-1H-pyrazolo[4,3-c]pyridin-3-yl)benzamide]",0.1 to 1
10,"Cc1cc2[nH]nc(-c3cnn(C4CCOCC4)c3)c2c(OC2CCOCC2)n1 [Example 24, 6-Methyl-3-(1-(tetrahydro-2H-pyran-4-yl)-1H-pyrazol-4-yl)-4-(tetrahydro-2H-pyran-4-yloxy)-1H-pyrazolo[4,3-c]pyridine]",< 0.1
11,"COc1nc(C)cc2[nH]nc(-c3cnn(C4CCOCC4)c3)c12 [Example 25, 4-Methoxy-6-methyl-3-(1-(tetrahydro-2H-pyran-4-yl)-1H-pyrazol-4-yl)-1H-pyrazolo[4,3-c]pyridine]",< 0.1

# Second part, the compound after the results:
row,Ki [µM],SMILES
1,0.1 to 1,"Cc1[nH]nc2cc(C3CC3)nc(OC3CCCCC3)c12 [Example 14, 4-(cyclohexyloxy)-6-cyclopropyl-3-methyl-1H-pyrazolo[4,3-c]pyridine]"
2,< 0.1,"CCOc1cc(-c2n[nH]c3cc(C)nc(NC4CCOCC4)c23)ncn1 [Example 17, 3-(6-ethoxypyrimidin-4-yl)-6-methyl-N-(tetrahydro-2H-pyran-4-yl)-1H-pyrazolo[4,3-c]pyridin-4-amine]"
3,< 0.1,"Cc1cc2[nH]nc(-c3cc(C(F)(F)F)ccn3)c2c(NC2CCOCC2)n1 [Example 18, 6-methyl-N-(tetrahydro-2H-pyran-4-yl)-3-(4-(trifluoromethyl)pyridin-2-yl)-1H-pyrazolo[4,3-c]pyridin-4-amine]"
4,< 0.1,"Cc1cc2[nH]nc(-c3cc(C(F)(F)F)ncn3)c2c(NC2CCOCC2)n1 [Example 19, 6-methyl-N-(tetrahydro-2H-pyran-4-yl)-3-(6-(trifluoromethyl)pyrimidin-4-yl)-1H-pyrazolo[4,3-c]pyridin-4-amine]"

# Molecular target: T1, LRRK2
# Assay: LRRK2 protein kinase assay ([γ-33P] ATP, peptide substrate), IC50
# Assay type: biochemical
# Parameters: Potency scores (LRRK2 IC50); the wild type has the same borders, PV4873; fused on or other part: GST tag
# Conditions: LRRK2 form (G2019S or wild type) not given; read-out: Potency scores (LRRK2 IC50)
# Text: All LRRK2 protein kinases were of human origin and were sourced from Invitrogen Corporation (Carlsbad, Calif. 92008 USA) unless otherwise indicated. The active mutant used was recombinant human, catalytic domain (amino acids 970-2527) containing a G2019S mutation, GST-tagged, expressed in insect cells (Invitrogen Cat#PV4881). The wild type used was recombinant human, catalytic domain (amino acids 970-2527) GST—tagged, expressed in insect cells (Invitrogen Cat#PV4873). The kinase dead mutant used was recombinant human, catalytic domain (amino acids 970-2527) containing a D1994A mutation, GST-tagged, expressed in insect cells (Invitrogen Cat#PM4041AE). No special measures were taken to activate any of the kinases.
# All assays were carried out at room temperature ([…]) and were linear with respect to time and enzyme concentration under the conditions used. Assays were performed for 180 min in a 96 well format. LRRK2 was present at a concentration of approximately 5 nM.
# The enzyme was diluted and assayed in 50 mM Tris-HCl pH7.5, 0.1 mM EGTA, 1 mM DTT and 10 mM MgCl2. The concentration of magnesium chloride in the assay was 10 mM. The [γ-33P] ATP (0.4 μCi/well) was used at 134 uM for G2019S mutant and at 57 μM for the wild type kinase in order to be at Km. The peptide substrate in the assay was […] at 100 μM.
# The assays were initiated with Mg/ATP and stopped by the addition of 25 μl/well 50% orthophosphoric acid. Reactions were harvested onto Whatman P81 Unifilter Plates (Fisher Scientific. Loughborough, LE115RG, UK. Cat# FDU-105-020U) using a Tomtec harvester (Tomtec Hamden, Conn. 06514. USA). Plates were counted using a Perkin Elmer Top Count NX7. (Perkin Elmer, Shelton CT 06484-4794 USA)
# IC50 values of inhibitors were determined after carrying out assays at 10 different concentrations of each compound in duplicate.
# Target sequence in this assay (Q5S007 whole entry G2019S, form open): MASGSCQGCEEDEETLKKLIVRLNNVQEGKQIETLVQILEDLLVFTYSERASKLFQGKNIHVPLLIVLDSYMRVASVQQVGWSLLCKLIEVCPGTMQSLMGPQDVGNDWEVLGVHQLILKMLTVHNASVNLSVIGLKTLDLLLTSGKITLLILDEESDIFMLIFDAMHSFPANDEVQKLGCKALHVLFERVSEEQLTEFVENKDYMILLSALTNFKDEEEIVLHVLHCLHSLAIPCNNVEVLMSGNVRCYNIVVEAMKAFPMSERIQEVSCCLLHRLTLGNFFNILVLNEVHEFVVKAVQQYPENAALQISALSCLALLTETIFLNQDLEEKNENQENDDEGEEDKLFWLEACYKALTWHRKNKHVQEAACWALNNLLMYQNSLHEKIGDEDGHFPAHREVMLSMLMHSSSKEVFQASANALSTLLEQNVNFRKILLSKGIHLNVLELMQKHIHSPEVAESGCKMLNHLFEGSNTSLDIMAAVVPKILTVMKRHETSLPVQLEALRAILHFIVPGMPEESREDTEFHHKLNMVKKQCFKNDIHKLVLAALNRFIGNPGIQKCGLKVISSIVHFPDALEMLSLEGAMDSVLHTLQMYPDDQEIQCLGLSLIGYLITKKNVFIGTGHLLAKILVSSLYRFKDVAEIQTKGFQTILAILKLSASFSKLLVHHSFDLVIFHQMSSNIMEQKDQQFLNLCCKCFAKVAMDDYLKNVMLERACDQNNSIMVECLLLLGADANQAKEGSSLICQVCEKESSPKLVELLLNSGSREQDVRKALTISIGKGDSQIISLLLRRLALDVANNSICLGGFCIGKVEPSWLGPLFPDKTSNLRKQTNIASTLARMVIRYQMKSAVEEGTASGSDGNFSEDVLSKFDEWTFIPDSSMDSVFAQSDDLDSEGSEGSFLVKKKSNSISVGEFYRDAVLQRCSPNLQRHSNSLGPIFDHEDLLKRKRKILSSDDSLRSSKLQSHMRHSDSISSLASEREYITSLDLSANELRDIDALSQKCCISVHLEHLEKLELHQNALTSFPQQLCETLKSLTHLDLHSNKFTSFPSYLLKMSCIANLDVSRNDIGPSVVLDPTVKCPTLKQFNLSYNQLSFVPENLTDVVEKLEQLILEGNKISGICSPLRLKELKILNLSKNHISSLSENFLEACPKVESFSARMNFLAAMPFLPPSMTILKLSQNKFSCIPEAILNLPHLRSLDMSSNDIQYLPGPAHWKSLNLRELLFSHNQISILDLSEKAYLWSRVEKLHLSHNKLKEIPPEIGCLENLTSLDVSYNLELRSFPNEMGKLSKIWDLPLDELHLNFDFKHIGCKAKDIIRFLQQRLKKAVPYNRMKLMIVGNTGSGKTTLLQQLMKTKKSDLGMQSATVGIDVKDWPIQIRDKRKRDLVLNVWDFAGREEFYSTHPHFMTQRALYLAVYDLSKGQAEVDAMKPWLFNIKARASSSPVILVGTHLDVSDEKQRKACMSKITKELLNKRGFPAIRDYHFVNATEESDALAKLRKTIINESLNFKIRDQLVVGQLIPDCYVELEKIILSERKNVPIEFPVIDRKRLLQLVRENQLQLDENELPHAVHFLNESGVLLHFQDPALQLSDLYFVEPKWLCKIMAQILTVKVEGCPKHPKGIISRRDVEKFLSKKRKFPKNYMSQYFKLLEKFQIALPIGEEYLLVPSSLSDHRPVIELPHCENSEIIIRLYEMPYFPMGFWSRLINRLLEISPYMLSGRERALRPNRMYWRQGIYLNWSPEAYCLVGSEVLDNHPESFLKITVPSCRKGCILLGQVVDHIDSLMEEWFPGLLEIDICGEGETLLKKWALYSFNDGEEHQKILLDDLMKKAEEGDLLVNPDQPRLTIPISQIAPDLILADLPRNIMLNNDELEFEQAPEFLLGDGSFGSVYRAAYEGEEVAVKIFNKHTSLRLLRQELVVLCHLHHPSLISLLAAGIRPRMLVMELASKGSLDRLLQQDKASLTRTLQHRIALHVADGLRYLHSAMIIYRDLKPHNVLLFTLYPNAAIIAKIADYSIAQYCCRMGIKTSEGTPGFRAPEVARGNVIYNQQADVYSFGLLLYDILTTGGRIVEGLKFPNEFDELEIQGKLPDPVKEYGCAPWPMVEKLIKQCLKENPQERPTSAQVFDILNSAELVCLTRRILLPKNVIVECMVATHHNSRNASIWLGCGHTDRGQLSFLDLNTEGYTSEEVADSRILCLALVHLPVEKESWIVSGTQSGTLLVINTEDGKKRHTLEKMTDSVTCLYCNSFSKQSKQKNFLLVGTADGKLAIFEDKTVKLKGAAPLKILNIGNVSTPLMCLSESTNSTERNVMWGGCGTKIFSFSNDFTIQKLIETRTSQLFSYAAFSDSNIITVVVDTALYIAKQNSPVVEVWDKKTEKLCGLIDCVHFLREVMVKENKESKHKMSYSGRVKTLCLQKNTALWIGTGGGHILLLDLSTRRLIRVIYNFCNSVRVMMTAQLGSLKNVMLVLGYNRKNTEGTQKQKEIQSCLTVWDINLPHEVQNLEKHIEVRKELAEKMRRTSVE
row,SMILES,IC50 [µM]
1,Cc1cc2[nH]nc(C)c2c(-c2ccco2)n1 [Example 7],0.1 to 1
2,Cc1n[nH]c2cncc(-c3ccco3)c12 [Example 8],0.1 to 1

# Continued, values first:
row,IC50 [µM],SMILES
1,0.1 to 1,Cc1n[nH]c2cc(Cl)nc(NC3CCCCC3)c12 [Example 1]
2,0.1 to 1,Cc1n[nH]c2cc(Cl)nc(OC3CCCCC3)c12 [Example 2]
3,1 to 10,Cc1n[nH]c2cc(N3CCOCC3)nc(OC3CCCCC3)c12 [Example 3]
4,1 to 10,Cc1n[nH]c2cc(-c3cnn(C)c3)nc(OC3CCCCC3)c12 [Example 4]
5,1 to 10,Cc1cc2[nH]nc(C)c2c(NC2CCCCC2)n1 [Example 5]
6,0.1 to 1,Cc1cc2[nH]nc(C)c2c(OC2CCCCC2)n1 [Example 6]
7,0.1 to 1,Cc1n[nH]c2cncc(NC3CCCCC3)c12 [Example 9]
8,0.1 to 1,Cc1n[nH]c2cncc(OC3CCCCC3)c12 [Example 10]
